Assays:
[1] = Relaxing of naturally curly/frizzy African hair with a simplified aqueous relaxing composition
Method: (§1) A simplified relaxing composition was prepared, containing, as relaxing active agent, 1,1-dimethylbiguanide (Registry Number [1115-70-4]) at a concentration of 0.75M in water. The pH of the composition was 13.6. The composition was applied to naturally curly/frizzy African hair for 15 minutes at a temperature of 30° C.
(§2) A simplified relaxing composition was prepared, containing, as relaxing active agent, 1,1-dimethylbiguanide (Registry Number [1115-70-4]) at a concentration of 0.5M in water. The pH of the composition was 13.5. This composition was applied to naturally curly/frizzy African hair for 25 minutes at a temperature of 30° C.
(§3) A simplified relaxing composition was prepared, containing as relaxing active agent, 1,3,4,6,7,8-hexahydro-2H-pyrimido[1,2-a]pyrimidine (Registry Number [5807-14-7]) at a concentration of 0.7M in water. The pH of the composition was 13.5. This composition was applied to naturally curly/frizzy African hair for 15 minutes at a temperature of 30° C.
(§4) A simplified relaxing composition was prepared, containing as relaxing active agent, 1,3,4,6,7,8-hexahydro-2H-pyrimido[1,2-a]pyrimidine (Registry Number [5807-14-7]) at a concentration of 0.5M in water. The pH of the composition was 13.4. This composition was applied to naturally curly/frizzy African hair for 25 minutes at a temperature of 30° C.

[2] = pH of the simplified relaxing composition; type: physicochemical
Method: as §1, §2, §3, §4

[3] = 0.5M in water (Examples 2 and 4)

## CN(C)C(=N)NC(=N)N [1,1-dimethylbiguanide]
[1]; 0.5M in water, pH 13.5, applied 25 minutes at 30° C. (Example 2)
  hair relaxing result (relaxing, combing/styling, feel): efficiently relaxed, easy to comb and style, and felt soft
[1]; 0.75M in water, pH 13.6, applied 15 minutes at 30° C. (Example 1)
  hair relaxing result (relaxing, combing/styling, feel): efficiently relaxed, easy to comb and style, and felt soft
[2]; [3]
  pH of the composition: 13.5
[2]; 0.75M in water (Example 1)
  pH of the composition: 13.6

## C1CN=C2NCCCN2C1 [1,3,4,6,7,8-hexahydro-2H-pyrimido[1,2-a]pyrimidine]
[1]; 0.5M in water, pH 13.4, applied 25 minutes at 30° C. (Example 4)
  hair relaxing result (relaxing, combing/styling, feel): efficiently relaxed, easy to comb and style, and felt soft
[1]; 0.7M in water, pH 13.5, applied 15 minutes at 30° C. (Example 3)
  hair relaxing result (relaxing, combing/styling, feel): efficiently relaxed, easy to comb and style, and felt soft
[2]; [3]
  pH of the composition: 13.4
[2]; 0.7M in water (Example 3)
  pH of the composition: 13.5

— patent US20050136017A1, “Hair relaxing composition comprising at least one non-hydroxide imine” (priority 2003, published 2005)
